As a reminder, the IC50 is the concentration that inhibits the measured activity by half. Lower therefore signals inhibition by little substance.

A value given as a limit tells only on which side of the number the result lay.

The species entered for this test is Mus musculus. Description: Ability to inhibit tumor necrosis factor-alpha (TNF-alpha) production in mouse macrophages stimulated with LPS. The test is classed as functional.
`Nc1nc(N2CCCCC2)c2ccccc2n1` returned an IC50 greater than 100 µM. `O=C(c1ccccc1)N1CCC(c2ncnc3ccccc23)CC1` yielded an IC50 of 1.4 µM. The value for `Nc1nc(C2CCN(C(=O)Cc3ccccc3)CC2)c2ccccc2n1` was 2 µM; that for `CN1CCC(c2nc(N)nc3ccccc23)CC1` was greater than 100 µM. The value for `COc1ccc(Cc2cc(C3CCN(C(=O)c4ccc(Cl)c(Cl)c4)CC3)nc(N)n2)cc1` was 0.7 µM.

Consider `Cc1cc(C2CCN(C(=O)c3ccccc3)CC2)nc(N)n1`, for which the concentration for half-maximal inhibition (IC50) was found to be 9 µM. This IC50 lies about 13-fold higher than the previous one. The value for `COc1ccc(Cc2cc(C3CCN(C(=O)Cc4ccc(Cl)c(Cl)c4)CC3)nc(N)n2)cc1` was 2.1 µM; that for `COc1ccc(Cc2cc(C3CCN(C(=O)c4cccc(OC)c4)CC3)nc(N)n2)cc1` was 1.2 µM; that for `COc1ccc(Cc2cc(C3CCN(C(=O)Cc4ccc(Cl)cc4)CC3)nc(N)n2)cc1` was 2.4 µM. With `Nc1nc(C2CCN(C(=O)CCc3ccccc3)CC2)c2ccccc2n1` the figure was 6.3 µM. As for `Nc1nc(C2CCN(C3CCCCC3)CC2)c2ccccc2n1`, half-maximal inhibition (IC50) was put at 53 µM. The value for `Nc1nc(C2CCN(Cc3ccccc3)CC2)c2ccccc2n1` was 16 µM. The value for `Nc1nc(Nc2ccccc2)c2ccccc2n1` was greater than 100 µM; that for `CCCCCCCC(=O)N1CCC(c2cc(Cc3ccc(OC)cc3)nc(N)n2)CC1` was 1.9 µM; that for `COc1ccc(Cc2cc(C3CCN(C(=O)c4cc(OC)cc(OC)c4)CC3)nc(N)n2)cc1` was 1 µM.

For `Nc1nc(C2CCNCC2)c2ccccc2n1`, the IC50 was found to be 51 µM. With `COc1ccc(Cc2cc(C3CCN(C(=O)Cc4ccc(OC)c(OC)c4)CC3)nc(N)n2)cc1` the figure was 1.2 µM; with `COc1ccc(Cc2cc(C3CCN(C(=O)c4ccc5c(c4)OCO5)CC3)nc(N)n2)cc1`, 0.6 µM; with `O=C(c1ccccc1)N1CCC(c2nc(Cl)nc3ccccc23)CC1`, 1.4 µM.

The compound `COc1ccc(CC(=O)N2CCC(c3cc(Cc4ccc(OC)cc4)nc(N)n3)CC2)cc1` gave an IC50 of 1.7 µM. In the case of `CC(=O)N1CCC(c2nc(N)nc3ccccc23)CC1`, the IC50 was 3.6 µM. With `Nc1nc(C2CCN(CCc3ccccc3)CC2)c2ccccc2n1` the figure was greater than 100 µM; with `O=C(c1ccccc1)N1CCC(c2nc(O)nc3ccccc23)CC1`, 20 µM; with `COc1ccc(Cc2cc(C3CCN(C(=O)c4cccc(OC)c4OC)CC3)nc(N)n2)cc1`, 0.9 µM. As to `COc1ccc(Cc2cc(C3CCN(C(=O)C(C)(C)C)CC3)nc(N)n2)cc1`, the IC50 is 5.6 µM. With `COc1ccc(Cc2cc(C3CCN(C(=O)c4ccc([N+](=O)[O-])cc4)CC3)nc(N)n2)cc1` the figure was 0.7 µM; with `COc1ccc(Cc2cc(C3CCN(C(=O)c4ccccc4OC)CC3)nc(N)n2)cc1`, 3.6 µM; with `Nc1nc(C2CCN(C(=O)c3ccccc3)CC2)c2ccccc2n1`, 1.4 µM. The value for `COc1ccc(Cc2cc(C3CCN(C(=O)c4ccccc4)CC3)nc(N)n2)cc1` was 1.4 µM; that for `COc1ccc(Cc2cc(C3CCN(C(=O)Cc4ccccc4)CC3)nc(N)n2)cc1` was 2.1 µM; that for `COc1ccc(Cc2cc(C3CCN(C(=O)Cc4ccc5c(c4)OCO5)CC3)nc(N)n2)cc1` was 1.8 µM. With `Nc1nc(C2CCN(C(=O)c3ccc4c(c3)OCO4)CC2)c2ccccc2n1` the figure was 4.5 µM; with `CCCCC(=O)N1CCC(c2nc(N)nc3ccccc23)CC1`, 3 µM. `CCC(=O)N1CCC(c2cc(Cc3ccc(OC)cc3)nc(N)n2)CC1` showed an IC50 of 4.9 µM.

In turn, `COc1ccc(-c2c(C)nc(N)nc2C2CCN(C(=O)c3ccccc3)CC2)cc1` showed an IC50 of 9.7 µM. Take `CCCC(=O)N1CCC(c2cc(Cc3ccc(OC)cc3)nc(N)n2)CC1`: the IC50 worked out at 7.2 µM. Take `COc1ccc(Cc2cc(C3CCN(C(C)=O)CC3)nc(N)n2)cc1`: the IC50 amounted to 6.1 µM. `CN1CCN(c2nc(N)nc3ccccc23)CC1` showed an IC50 greater than 100 µM.

The compound `COc1ccc(Cc2cc(C3CCN(C(=O)c4ccc(OC)c(OC)c4)CC3)nc(N)n2)cc1` yielded a half-inhibitory concentration (IC50) of 0.9 µM. Take `COc1ccc(Cc2cc(C3CCN(C(=O)c4ccccc4[N+](=O)[O-])CC3)nc(N)n2)cc1`: it took 1.7 µM to reach half-maximal inhibition (IC50). With `COc1ccc(Cc2cc(C3CCN(C(=O)c4ccc(OC)cc4)CC3)nc(N)n2)cc1` the figure was 0.5 µM. The value for `COc1ccc(Cc2cc(C3CCN(C(=O)c4cccc([N+](=O)[O-])c4)CC3)nc(N)n2)cc1` was 0.8 µM; that for `COc1ccc(Cc2cc(C3CCN(C(=O)c4ccc(Cl)cc4)CC3)nc(N)n2)cc1` was 0.6 µM; that for `Nc1nc(-c2ccccc2)cc(C2CCN(C(=O)c3ccccc3)CC2)n1` was 5.1 µM. With `Nc1nc(C2CCN(C(=O)C3CCCCC3)CC2)c2ccccc2n1`, the IC50 was 2.5 µM. The value for `CCCCCC(=O)N1CCC(c2cc(Cc3ccc(OC)cc3)nc(N)n2)CC1` was 1.5 µM.

The record behind these values is ChEMBL document CHEMBL1133194, “Synthesis and bioactivities of novel piperidylpyrimidine derivatives: inhibitors of tumor necrosis factor-alpha production” (Bioorg Med Chem Lett, 2000).
